Test results taken from patent publication US6455546B2, “Method for promoting ovulation, parturition, and lactation in mammals” (Clemson University, priority 1996, dated 2002).
Where “and” joins values, the source holds several entries; their conditions need not be identical. Equal entries are not always repeated. Entries after “also recorded” stand apart in the source; their conditions may differ.

Legend:
[1] = test system: agalactic mares; assay: Preparation for parturition, udder development and lactation in agalactic mares; assay type: in vivo;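 note: treated mares were free of fescue toxicosis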
[2] = test system: quarter horse mares; assay: Daily feed intake of mares; assay type: in vivo
Description: Ten quarter horse mares were housed in individual pens and fed a standard feed concentrate weighing 0.5% of each mares' initial body weight at approximately 8:00 A.M. each day during the study. In addition, hay was fed to the mare ad libitum each day. During the night, the mares were placed in a dry lot having no access to food.

[3] = test system: mares; assay: Stimulation of follicular growth and ovulation in mares out of season
[4] = test system: animals; conditions: animals exposed to other D2 receptor antagonists; cited from earlier work
[5] = individual agalactic mares, 1.1 mg/kg per day orally, 1.1 mg/kg/day
[6] = individual mares, domperidone .55 mg/kg orally daily in molasses, January and February

| SMILES | Milk production ([1]; horses, orally about 0.2 mg/kg to about 3.3 mg/kg of body weight) | Did Mare Have A Live Foal? ([1]; individual agalactic mares, 1.1 mg/kg per day orally) | Days Before (−) or After Expected Foaling that Mare Foaled [1, 5] | Mare's Udder Development After Treatment Began [1, 5] | Was Mare Lactating Normally After Foaling? [1, 5] | Adverse side effects ([1]; subcutaneous, amounts greater than 1.32 mg/kg) | Daily hay consumption after treatment began ([2]; each of the ten mares, 1.1 mg/kg orally daily) | Avg. Hay Consumption After Treatment ([2]; individual mares, 1.1 mg/kg orally daily for two weeks, hay ad libitum, 1.1 mg/kg) | Mares treated that ovulated ([3]; 0.55 mg/kg orally daily, only two of nine control mares ovulated) | Date of Ovulation [3, 6] | No. of Days of Treatment Before Ovulation [3, 6] | Neurological side effects ([3]; mares, 0.55 mg/kg orally daily, during the study) | Neuroleptic side effects [4] |
| --- | --- | --- | --- | --- | --- | --- | --- | --- | --- | --- | --- | --- | --- |
| O=c1[nH]c2ccccc2n1CCCN1CCC(n2c(=O)[nH]c3cc(Cl)ccc32)CC1 [domperidone] | stimulated | Yes | −1 Days and +8 Days and +15 Days and +14 Days and 0 Days and −3 Days (2×) and +3 Days and −2 Days and +12 Days | Increased Weekly; also recorded: Developed Adequately; also recorded: Very Slight; also recorded: Gradual Development; also recorded: Normal Development; also recorded: No Response; also recorded: Immediate; also recorded: Dripping Milk 5th Day | Yes (11×) and No. but drug | without any adverse side effects | increased | 13.0 lbs and 12.2 lbs and 14.1 lbs (2×) and 13.2 lbs and 14.2 lbs and 12.3 lbs and 13.5 lbs and 15.0 lbs and 12.1 lbs | nine of the ten | Feb. 9; also recorded: Feb. 6; also recorded: Feb. 12; also recorded: Feb. 8; also recorded: Feb. 15; also recorded: Feb. 5; also recorded: Feb. 7; also recorded: Feb. 13; also recorded: d/n ovulate; also recorded: Feb. 10 | 18 Days (2×) and 21 Days and 17 Days and 24 Days and 14 Days and 16 Days and 22 Days and d/n ovulate and 19 Days | No neurological side effects were observed | – |
| CCN(CC)CCNC(=O)c1cc(Cl)c(N)cc1OC [metoclopramide] | – | – | – | – | – | – | – | – | – | – | – | – | neuroleptic side effects have been observed |
| CCN1CCCC1CNC(=O)c1cc(S(N)(=O)=O)ccc1OC (centres unmarked) [sulpiride] | – | – | – | – | – | – | – | – | – | – | – | – | neuroleptic side effects have been observed |
